“And” between values parts separate entries of the source, which are not always exact repeats. Identical values can stand only once. Like-named read-outs stand apart in the source and are kept apart here.
Columns and labels:
Type in all cases: biochemical
[1] = biological target: T1, H. pylori shikimate kinase (HpSK) (Helicobacter pylori, UniProt P56073); test: Shikimate kinase coupled enzyme inhibition assay (HpSK); conditions: for IC50: 1.6 mM shikimic acid, 2.5 mM ATP, 25°C, pH 7.5; for Inhibitory effect against shikimate kinase (in words): HpSK
T1 construct: made in house; host or cells: Escherichia coli (stated for the mutants, which followed the wild-type procedure)
T1 sequence (P56073 whole entry): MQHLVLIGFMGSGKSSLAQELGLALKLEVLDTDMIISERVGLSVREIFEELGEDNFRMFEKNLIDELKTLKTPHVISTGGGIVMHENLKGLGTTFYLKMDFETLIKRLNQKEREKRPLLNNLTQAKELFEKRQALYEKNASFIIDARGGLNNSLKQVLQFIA

[2] = biological target: T2, M. tuberculosis shikimate kinase (MtSK) (Mycobacterium tuberculosis, UniProt P9WPY3); test: Shikimate kinase coupled enzyme inhibition assay (MtSK); conditions: for Inhibitory effect against shikimate kinase (in words): MtSK; for IC50: SK species: Mt, 1.6 mM shikimic acid, 2.5 mM ATP, 25°C, pH 7.5
T2 construct: His6 (N); made in house; host or cells: E. coli BL-21 (DE3)
T2 sequence (P9WPY3 whole entry): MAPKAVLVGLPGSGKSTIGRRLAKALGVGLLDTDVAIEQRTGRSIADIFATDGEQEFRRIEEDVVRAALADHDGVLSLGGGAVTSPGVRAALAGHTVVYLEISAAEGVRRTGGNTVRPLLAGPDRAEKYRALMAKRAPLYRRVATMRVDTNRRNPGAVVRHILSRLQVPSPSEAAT

[3] = biological target: T1, H. pylori shikimate kinase (HpSK); test: Analysis of inhibitor kinetics / inhibitor modality (HpSK); conditions: for Inhibitor modality with respect to ATP / Inhibitor modality with respect to shikimate: HpSK; for Ki: SK species: Hp
Description: (§1) Shikimate kinase activity was determined by coupling the release of ADP from the SK-catalyzed reaction to the oxidation of NADH using pyruvate kinase (EC 2.7.1.40) and lactate dehydrogenase (EC 1.1.1.27) as coupling enzymes. Shikimate-dependent oxidation of NADH was measured by monitoring the decrease in A340 (ε = 6,200 M^−1 cm^−1). The assay was carried out at 25°C in a mixture of 100 mM Tris-HCl buffer, pH 7.5, 50 mM KCl, 5 mM MgCl2, 1.6 mM shikimic acid, 2.5 mM ATP, 1 mM phosphoenolpyruvate (PEP), 0.1 mM NADH, 2.5 units of pyruvate kinase per ml, and 2.7 units of lactate dehydrogenase per ml. All assays were conducted in a 96-well microplate and analyzed with a spectrophotometer (FLUOstar OPTIMA, BMG LABTECH).
(§2) After the preliminary screening, the inhibitor modality was determined by measuring the effects of inhibitor concentrations on the enzymatic activity as a function of substrate concentration. In the inhibition experiment in which the ATP concentration was fixed at 2.5 mM, shikimate was a varied substrate (0.06, 0.12, 0.24, 0.48, and 0.96 mM) when the concentration of inhibitor was varied from 0 to 50 µM. In parallel, in the inhibition experiment in which the shikimate concentration was fixed at 1.6 mM, ATP was a varied substrate (0.06, 0.12, 0.24, 0.48, and 0.96 mM) when the concentration of inhibitor was varied from 0 to 50 µM. A nonlinear least square-fitting algorithm was applied to the absorbance data to determine the kinetic mechanism data.

[4] = biological target: T2, M. tuberculosis shikimate kinase (MtSK); test: Analysis of inhibitor kinetics / inhibitor modality (MtSK); conditions: for Inhibitor modality with respect to ATP / Inhibitor modality with respect to shikimate: MtSK; for Ki: SK species: Mt
Description: as §1, §2

[5] = ATP varied, shikimate fixed at 1.6 mM, read-out: αKi, ATP
[6] = shikimate varied, ATP fixed at 2.5 mM, read-out: αKi, SKM

## Nc1ccc2c(O)c(/N=N/c3ccc([N+](=O)[O-])cc3)c(S(=O)(=O)O)cc2c1 [NSC45547]
[1]; SK species: Hp
  IC50: ≤ 10 µM and 7.8 µM

## O=C1Nc2ccc(I)cc2/C1=C/c1cc(Br)c(O)c(Br)c1 [GW5074, reference compound]
[2]
  Inhibitory effect against shikimate kinase (in words): showed inhibitory effects
  IC50: 29.6 µM
[1]
  Inhibitory effect against shikimate kinase (in words): showed inhibitory effects
[1]; IC50, SK species: Hp
  IC50: 31.4 µM

## O=C(NNC(=O)C1c2ccccc2Oc2ccccc21)c1cccc(F)c1 [RH00016]
[2]
  IC50: < 100 µM
[1]; IC50, SK species: Hp
  IC50: 40.2 µM

## Nc1ccc2c(O)c(N=Nc3ccc4c(O)cc(S(=O)(=O)O)cc4c3)c(S(=O)(=O)O)cc2c1 [NSC162535]
[3]
  Inhibitor modality with respect to ATP: competitive inhibitors of ATP
  Inhibitor modality with respect to shikimate: competed with shikimate
[3]; read-out: αKi, ATP, ATP varied, shikimate fixed at 1.6 mM
  Ki: 1.9 µM
[3]; read-out: αKi, SKM, shikimate varied, ATP fixed at 2.5 mM
  Ki: 1.8 µM
[4]
  Inhibitor modality with respect to ATP: competitive inhibitors of ATP
  Inhibitor modality with respect to shikimate: competed with shikimate
[4]; [5]
  Ki: 0.2 µM
[4]; [6]
  Ki: 0.6 µM

## O=S(=O)(O)c1cc(O)c2c(O)c(N=Nc3cccc4ccccc34)c(S(=O)(=O)O)cc2c1 [NSC45208]
[2]
  Inhibitory effect against shikimate kinase (in words): lost the inhibitory
  IC50: > 100 µM
[1]
  Inhibitory effect against shikimate kinase (in words): lost the inhibitory
[1]; IC50, SK species: Hp
  IC50: > 100 µM

## O=C(Nc1ccc2c(O)cc(S(=O)(=O)O)cc2c1)Nc1ccc2c(O)cc(S(=O)(=O)O)cc2c1 [NSC45174]
[2]
  IC50: ≤ 10 µM and 2.8 µM
[1]; IC50, SK species: Hp
  IC50: ≤ 10 µM and 7.8 µM

## O=C(NNC(=O)C1c2ccccc2Oc2ccccc21)c1cccc([N+](=O)[O-])c1 [RH00037]
[2]
  IC50: < 100 µM
[1]; IC50, SK species: Hp
  IC50: 23.8 µM

## O=C(Nc1ccc2c(O)c(/N=N/c3ccc4c(O)cc(S(=O)(=O)O)cc4c3)c(S(=O)(=O)O)cc2c1)c1ccccc1 [NSC45609]
[1]; SK species: Hp
  IC50: ≤ 10 µM and 7 µM

## N=C(NO)c1ccc(Oc2cc(Cl)cc(Cl)c2)c([N+](=O)[O-])c1 [SPB01099]
[2]
  IC50: < 100 µM
[1]; SK species: Hp
  IC50: < 100 µM

## Cc1cc(N=Nc2ccc(N=Nc3ccc(N=Nc4ccc(O)c(C(=O)O)c4)cc3)c(S(=O)(=O)O)c2C)c(N)cc1N [NSC45611]
[2]
  IC50: ≤ 10 µM and 1.5 µM
[3]
  Inhibitor modality with respect to ATP: competitive inhibitors of ATP
  Inhibitor modality with respect to shikimate: competed with shikimate
[3]; αKi, ATP, ATP varied, shikimate fixed at 1.6 mM
  Ki: 1.1 µM
[3]; αKi, SKM, shikimate varied, ATP fixed at 2.5 mM
  Ki: 1.7 µM
[4]
  Inhibitor modality with respect to ATP: competitive inhibitors of ATP
  Inhibitor modality with respect to shikimate: competed with shikimate
[4]; [5]
  Ki: 0.3 µM
[4]; [6]
  Ki: 0.7 µM
[1]; IC50, SK species: Hp
  IC50: ≤ 10 µM and 4.8 µM

## O=C(Nc1ccc(C(=O)Nc2ccc3c(O)cc(S(=O)(=O)O)cc3c2)cc1)c1ccccc1 [NSC37215]
[2]
  Inhibitory effect against shikimate kinase (in words): lost the inhibitory
  IC50: > 100 µM
[1]
  Inhibitory effect against shikimate kinase (in words): lost the inhibitory
[1]; IC50, SK species: Hp
  IC50: > 100 µM
